In patent US20220257706A1, “EPIDERMAL GROWTH FACTOR RECEPTOR (EGFR) LIGANDS” (NANYANG TECHNOLOGICAL UNIVERSITY, priority 2019, published 2022):
Read-outs that look alike come from different tables or passages of the source.

Columns and labels:
HaCaT cells [1] = assay type: cell-based, human; settings: for mitogenic effect compared with bleogen pB1: 1 μM, crystal violet assay; for EGFR dependence of proliferative/mitogenic effect: co-incubation with EGFR neutralizing antibody (clone LA1)
Procedure: HaCaT (human keratinocyte), HUVEC-CS (endothelial cells) cells were cultured in Dulbecco's modification of Eagle's medium (DMEM) supplemented with 10% fetal bovine serum and 100 U/mL of penicillin and streptomycin. Normal Human Epidermal Keratinocytes adult purchased from Lifeline® cell technology were cultured in Lifeline® DermaLife K Medium. They were grown in a 5% CO2 humidified incubator at 37° C. HaCaT cells were stably transfected with pGL4.33[luc2P/SRE/Hygro] (Promega) and selected using 250 μg/mL hygromycin. Stable HaCaT cells expressing SRE luciferase reporter were maintained with 250 μg/mL hygromycin.
Cell proliferation was determined using crystal violet staining. […] 3417-Da-peptide aB1 is a CRP isolated from Achyranthes bidentata with the amino acid sequence […] (SEQ ID NO:11). Crystal violet staining was performed as previously described. Briefly, after the incubation period, the wells were fixed with 4% buffered paraformaldehyde for 20 min. The cells were then stained with 0.25% crystal violet in 20% methanol for 15 min. The excess crystal violet stain was rinsed with distilled water for 4-5 times and air-dried. Glacial acetic acid (10%) in Milli-Q water was added to extract the crystal violet stain. The absorbance was then measured at 595 nm using a microplate reader (Tecan Infinite® 200 Pro, Switzerland).

EGFR = EGFR (Homo sapiens, UniProt P00533); assay: TR-FRET EGFR ligand binding assay (competitive displacement of biotin-EGF); parameters: purchased PerkinElmer
Sequence of EGFR (P00533 25-645 limits assumed): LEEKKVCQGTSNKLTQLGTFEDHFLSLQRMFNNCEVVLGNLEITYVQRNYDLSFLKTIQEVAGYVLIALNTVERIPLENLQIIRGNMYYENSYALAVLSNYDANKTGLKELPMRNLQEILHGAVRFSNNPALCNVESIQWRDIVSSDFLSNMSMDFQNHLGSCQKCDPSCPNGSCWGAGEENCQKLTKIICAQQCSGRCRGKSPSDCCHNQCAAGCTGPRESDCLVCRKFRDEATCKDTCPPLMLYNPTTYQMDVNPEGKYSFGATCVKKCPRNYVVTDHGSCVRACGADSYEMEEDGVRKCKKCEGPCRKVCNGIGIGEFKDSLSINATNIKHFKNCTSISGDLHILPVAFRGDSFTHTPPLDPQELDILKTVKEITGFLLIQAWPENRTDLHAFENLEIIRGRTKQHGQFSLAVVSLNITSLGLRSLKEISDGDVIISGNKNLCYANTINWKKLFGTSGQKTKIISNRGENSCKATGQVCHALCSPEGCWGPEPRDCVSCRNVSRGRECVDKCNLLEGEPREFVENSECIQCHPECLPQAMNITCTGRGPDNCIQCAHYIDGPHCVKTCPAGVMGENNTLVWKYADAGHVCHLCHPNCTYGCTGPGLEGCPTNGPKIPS
Procedure: TR-FRET ratio was measured using a microplate reader in dual emission mode (Excitation: 340 nm, emission: 665 nm and 615 nm) (Cytation 1, US). […] (SEQ ID NO:11) or roseltide rT7 with an amino acid sequence of […] (SEQ ID NO:17) were used as negative control.

HaCaT cells [2] = assay: Cell migration scratch assay; assay type: cell-based, human; settings: data not shown
Procedure: Cell migration was monitored using the scratch assay. Briefly, HaCaT cells were seeded into 2 well silicone inserts with a defined gap of 500 μm (ibidi, Germany). […] After incubation for 8 h, the wells were photographed using inverted phase-contrast microscope. Images were analyzed for the percentage of cell-free area using the Wimasis image analysis platform.

HUVEC-CS cells = assay: Endothelial tube formation assay; assay type: cell-based; settings: data not shown
Procedure: Endothelial tube formation assay was performed using a μ-slide (ibidi, Germany). Briefly, 10 μL of gel matrix (BD Matrigel™ Basement Membrane Matrix) was casted onto each μ-slide well and left to solidify. […] After incubation for 2 h, the wells were photographed using inverted phase-contrast microscope. Images were analyzed for the numbering of branching points using the Wimasis image analysis platform.

newborn ICR mice = assay: Newborn mice model for incisor eruption; assay type: in vivo, mouse; settings: 3 mg/kg subcutaneous, five consecutive days; saline control 153 h
Procedure: ICR mice were obtained from Vital Rital Laboratories (Beijing, China). […] All experiments were approved and performed in accordance with the institutional guidelines of the Experimental Animal Center of the Chinese Academy of Medical Science (Beijing, China). Subcutaneous injections were made for five consecutive days in the nape of the neck of the newborn mice starting from the day of birth (day 0). […] Incisor eruption was recorded daily by visual inspection. Incisor eruption was defined as the time at which a given tooth first pierced the oral epithelium.

C57BL/6 mice = assay: Full-thickness splinted excisional wound healing in C57BL/6 mice; assay type: in vivo, mouse; settings: topical, three consecutive days; bleogen pB1 10 nmol/wound, EGF 1 nmol/wound; vs saline
Procedure: C57BL/6 mice were obtained from Vital Rital Laboratories (Beijing, China). […] All experiments were approved and performed in accordance with the institutional guidelines of the Experimental Animal Center of the Chinese Academy of Medical Science (Beijing, China).
(§1) Full-thickness 5-mm splinted excisional wounding of mice was performed. Briefly, mice were anesthetized using an intraperitoneal injection of sodium pentobarbital (50 mg kg^−1). The hair of the back was shaved with an electric clipper followed by a depilatory cream. Using a 5-mm-diameter sterile biopsy punch, symmetrical full-thickness excisional wounds were created. Splints were placed around the wound using adhesive glue and secured with four interrupted sutures. The wounds and splints were covered with Tegaderm (3M, US). At indicated days within the 14 days post-injury course, wound diameters were measured. The size of wound was calculated from the average of two diameter measurements along the x and y axis.
Full-thickness 5 mm splinted excisional wounding of mice was performed on C57BL/6 mice as described above.

[3] = test system: STZ-induced diabetic C57BL/6 mice; assay: Full-thickness splinted excisional wound healing in streptozotocin-induced diabetic C57BL/6 mice; assay type: in vivo, mouse; settings: 1 nmol/wound topical, five consecutive days
Procedure: as §1
Diabetes was induced into C57BL/6 mice by two intraperitoneal injection (80 mg/kg) of STZ at day 1 and 5. Starting from day 8, blood glucose was monitored regularly for two weeks. […] Blood glucose was also monitored at day 14 post-injury to ensure the mice are diabetic.

c-fos = assay: Gene expression analysis (qPCR) of c-fos in HaCaT cells; assay type: cell-based, human; settings: 2 h treatment
Procedure: (§2) Total RNA was extracted from HaCaT and primary human keratinocytes using PureLink™ RNA mini kit (Thermo Fisher Scientific, US). First-strand cDNA was synthesised from 600 ng of total RNA using SuperScript™ II Reverse Transcriptase and Oligo(dT)12-18 (Thermo Fisher Scientific, US) according to the manufacturer's instructions. Quantitative PCR (qPCR) was performed with iTaq Universal SYBR Green Supermix (Bio-Rad, US) on a CFX96 Touch Real-Time PCR Detection System (Bio-Rad, US) for 40 cycles. PCR reaction (20 μL): 3 μL cDNA, 1 μL primer mix (10 μM), 6 μL DEPC-treated water and 10 μL mastermix. […] GAPDH was used as a housekeeping gene for normalization. Fold changes of gene expressions with c-fos and c-Jun were calculated using the 2^−ΔΔCT method.

c-Jun = assay: Gene expression analysis (qPCR) of c-Jun in HaCaT cells; assay type: cell-based, human; settings: 2 h treatment
Procedure: as §2

[4] = Heat stability (100° C., RP-HPLC); assay type: physicochemical
Procedure: Samples were collected at various time points (0, 30, 60, and 120 min).

physchem = settings: buffer
Procedure: (§3) Samples were collected at various time points.
(§4) All collected samples from various stability assays were analyzed by RP-HPLC with a linear gradient of mobile phase A (0.05% TFA/H2O) and mobile phase B (0.05% TFA/ACN) on aeris peptide XB-C18 column (Phenomenex, US). The resulting peaks were collected and identified by MALDI-TOF MS. The results were expressed as percentage of initial concentration using the peak area of the HPLC profile.

[5] = test system: pepsin, trypsin, pronase, human neutrophil elastase; assay: in vitro
Procedure: as §3, §4

[6] = test system: pepsin, trypsin, pronase, human neutrophil elastase; assay: Proteolytic stability against a panel of proteases; settings: disulfide bridges reduced and S-alkylated by iodoacetamide
Procedure: as §3, §4

Compound: CC[C@H](C)[C@@H]1NC(=O)[C@H](CCC(=O)O)NC(=O)[C@H]([C@@H](C)O)NC(=O)[C@@H]2CSSC[C@@H]3NC(=O)[C@H](Cc4ccccc4)NC(=O)[C@H](CC(N)=O)NC(=O)[C@H](CO)NC(=O)[C@H](CSSC[C@H](NC(=O)[C@@H](N)CCC(N)=O)C(=O)N[C@@H](CCCCN)C(=O)N4CCC[C@H]4C(=O)N[C@@H](CC(N)=O)C(=O)NCC(=O)N[C@@H](C)C(=O)N[C@@H](CCCCN)C(=O)N2)NC(=O)[C@H](CSSC[C@@H](C(=O)N[C@@H](C)C(=O)N[C@@H](CC(N)=O)C(=O)N[C@@H](CCCNC(=N)N)C(=O)O)NC(=O)[C@H]([C@@H](C)O)NC(=O)CNC(=O)[C@H](CO)NC(=O)[C@H](CCCCN)NC(=O)[C@H](CCC(N)=O)NC(=O)CNC(=O)[C@H](C)NC(=O)[C@@H](Cc2ccc(O)cc2)NC(=O)[C@H](CCCNC(=N)N)NC(=O)[C@H](CC(C)C)NC3=O)NC(=O)[C@@H]2CCCN2C(=O)[C@@H]2CCCN2C(=O)[C@H]([C@@H](C)CC)NC(=O)[C@H](CO)NC1=O [[Y25y]pB1]
- mitogenic effect compared with bleogen pB1 (HaCaT cells [1]; 72 h): more mitogenic than bleogen pB1
- EGFR dependence of proliferative/mitogenic effect (HaCaT cells [1]): EGFR-dependent
- EGFR affinity / EGF-like biological activity compared with bleogen pB1 (EGFR displacement) (EGFR): higher affinity than bleogen pB1
- IC50 (EGFR): 580 ± 0.089 nM
- EGFR affinity / EGF-like biological activity compared with bleogen pB1 (EGFR displacement) (EGFR; listed as Y25y pB1): increased EGF-like biological activities

Compound: EGF: epidermal growth factor, SEQ ID NO:10, positive control
- HaCaT cell migration (HaCaT cells [2]): accelerate
- endothelial cell tube formation (HUVEC-CS cells): accelerate
- time of incisor eruption in newborn mice (newborn ICR mice): 100 h
- wound healing, full-thickness excision wound model in C57 mice (C57BL/6 mice): accelerated wound healing from day 3 to day 11
- wound healing rate vs vehicle control in STZ-induced diabetic mice [3]: healed at a significantly faster rate starting from day 4 post-injury
- mRNA expression of c-fos (c-fos): significantly upregulate
- mRNA expression of c-Jun (c-Jun): significantly upregulate

Compound: CC[C@H](C)[C@@H]1NC(=O)[C@H](CCC(=O)O)NC(=O)[C@H]([C@@H](C)O)NC(=O)[C@@H]2CSSC[C@@H]3NC(=O)[C@H](Cc4ccccc4)NC(=O)[C@H](CC(N)=O)NC(=O)[C@H](CO)NC(=O)[C@H](CSSC[C@H](NC(=O)[C@@H](N)CCC(N)=O)C(=O)N[C@@H](CCCCN)C(=O)N4CCC[C@H]4C(=O)N[C@@H](CC(N)=O)C(=O)NCC(=O)N[C@@H](C)C(=O)N[C@@H](CCCCN)C(=O)N2)NC(=O)[C@H](CSSC[C@@H](C(=O)N[C@@H](C)C(=O)N[C@@H](CC(N)=O)C(=O)N[C@@H](CCCNC(=N)N)C(=O)O)NC(=O)[C@H]([C@@H](C)O)NC(=O)CNC(=O)[C@H](CO)NC(=O)[C@@H](CCCCN)NC(=O)[C@H](CCC(N)=O)NC(=O)CNC(=O)[C@H](C)NC(=O)[C@H](Cc2ccc(O)cc2)NC(=O)[C@H](CCCNC(=N)N)NC(=O)[C@H](CC(C)C)NC3=O)NC(=O)[C@@H]2CCCN2C(=O)[C@@H]2CCCN2C(=O)[C@H]([C@@H](C)CC)NC(=O)[C@H](CO)NC1=O [[K29k]pB1]
- mitogenic effect compared with bleogen pB1 (HaCaT cells [1]; 72 h): more mitogenic than bleogen pB1
- EGFR dependence of proliferative/mitogenic effect (HaCaT cells [1]): EGFR-dependent
- wound closure compared with EGF and bleogen pB1 in STZ-diabetic mice [3]: at a similar rate as EGF, and much faster than bleogen pB1
- wound healing rate vs vehicle control in STZ-induced diabetic mice [3]: healed at a significantly faster rate starting from day 4 post-injury
- wound closure compared with EGF and bleogen pB1 in STZ-diabetic mice ([3]; listed as K29k pB1): comparable
- half-life at 0.1 M [4]: > 8.33 h
- half-life at 0.1 M (physchem): > 8.33 h
- half-life at 0.1 M [5]: > 8.33 h
- EGFR affinity / EGF-like biological activity compared with bleogen pB1 (EGFR displacement) (EGFR): higher affinity than bleogen pB1
- potency relative to bleogen pB1 (fold more potent) (EGFR): approximately 60 fold
- IC50 (EGFR; TR-FRET, mean±S.D., three independent experiments, read-out: IC50, displacement of biotin-EGF from EGFR): 27 ± 0.05 nM
- EGFR affinity / EGF-like biological activity compared with bleogen pB1 (EGFR displacement) (EGFR; listed as K29k pB1): increased EGF-like biological activities
- potency relative to bleogen pB1 (fold more potent) (EGFR; listed as K29k pB1): 60 fold

Compound: NCESGTSCIPGAQHNCCSGVCVPIVTIFYGVCY (listed as Achyranthes bidentata) [aB1, reference compound]
- HaCaT cell proliferation, concentration up to which not active (HaCaT cells [1]; negative control): > 10 µM

Compound: N#CC(=C(/N)Sc1ccccc1N)/C(C#N)=C(\N)Sc1ccccc1N [U0126, reference compound]
- effect of co-incubation on bleogen pB1-induced HaCaT cell proliferation (HaCaT cells [1]): substantially inhibited

Compound: COc1cc2ncnc(Nc3cccc(Cl)c3)c2cc1OC [AG1478, reference compound]
- effect of co-incubation on bleogen pB1-induced HaCaT cell proliferation (HaCaT cells [1]; serum-free medium, 72 h): substantially inhibited

Compound: CC[C@H](C)[C@H](NC(=O)[C@H](CCC(=O)O)NC(=O)[C@@H](NC(=O)[C@H](CSCC(N)=O)NC(=O)[C@H](CCCCN)NC(=O)[C@H](C)NC(=O)CNC(=O)[C@H](CC(N)=O)NC(=O)[C@@H]1CCCN1C(=O)[C@H](CCCCN)NC(=O)[C@H](CSCC(N)=O)NC(=O)[C@@H](N)CCC(N)=O)[C@@H](C)O)C(=O)N[C@@H](CO)C(=O)N[C@H](C(=O)N1CCC[C@H]1C(=O)N1CCC[C@H]1C(=O)N[C@@H](CSCC(N)=O)C(=O)N[C@@H](CSCC(N)=O)C(=O)N[C@@H](CO)C(=O)N[C@@H](CC(N)=O)C(=O)N[C@@H](Cc1ccccc1)C(=O)N[C@@H](CSCC(N)=O)C(=O)N[C@@H](CC(C)C)C(=O)N[C@@H](CCCNC(=N)N)C(=O)N[C@@H](Cc1ccc(O)cc1)C(=O)N[C@@H](C)C(=O)NCC(=O)N[C@@H](CCC(N)=O)C(=O)N[C@@H](CCCCN)C(=O)N[C@@H](CO)C(=O)NCC(=O)N[C@H](C(=O)N[C@@H](CSCC(N)=O)C(=O)N[C@@H](C)C(=O)N[C@@H](CC(N)=O)C(=O)N[C@@H](CCCNC(=N)N)C(=O)O)[C@@H](C)O)[C@@H](C)CC [S-alkylated bleogen pB1, reference compound]
- degradation by proteases (time) [6]: within a couple of minutes
